Measurements from PMC10451623 (Antioxidants, 2023).

Experiments:
[1] = biological target: T1, PPARα-LBD (Homo sapiens, UniProt Q07869); experiment: TR-FRET SRC1 coactivator recruitment assay; format: biochemical; design: Human PPARα-LBD (amino acids 200–468); made in house; host or cells: Rosetta (DE3) pLysS (E. coli); conditions: for EC50: TR-FRET, SRC1 peptide, read-out: EC50, SRC1 recruitment to PPARα-LBD
T1 sequence (Q07869 200-468): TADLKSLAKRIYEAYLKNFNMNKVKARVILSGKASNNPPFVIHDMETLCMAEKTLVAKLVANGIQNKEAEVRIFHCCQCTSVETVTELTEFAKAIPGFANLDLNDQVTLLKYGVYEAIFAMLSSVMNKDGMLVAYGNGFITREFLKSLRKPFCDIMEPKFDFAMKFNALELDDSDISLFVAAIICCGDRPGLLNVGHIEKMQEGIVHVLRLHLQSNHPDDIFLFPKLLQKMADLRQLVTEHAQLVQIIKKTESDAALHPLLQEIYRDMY
Procedure: (§1) Subsequently, 5 µL of 4 nM Eu-W1024-labeled anti-6×His antibody/80 nM ULight-Streptavidin (PerkinElmer) was added to each well, and the microplate was incubated in the dark for 2 h, at room temperature. […] The nonlinear fitting and the calculation of the EC50 were performed using the Prism 9 software (GraphPad, San Diego, CA, USA).
(§2) The ligand-bound activated forms of PPARs are stabilized by associations with specific coactivators, thereby enabling the regulation of specific gene expression.
(§3) Figure 2 TR-FRET-based LBD-mediated human PPARα/δ/γ coactivator recruitment assay. […] Data are presented as the mean ± SE of three or four independent experiments with duplicate samples, and the calculated EC50 values are shown.

[2] = biological target: T2, human PPARδ (Homo sapiens, UniProt Q03181); experiment: Transactivation assay (GAL4–hPPARδ-LBD chimera, luciferase reporter, COS-7 cells); format: cell-based; conditions: for Emax: COS-7, read-out: Efficacy, PPARδ transactivation (% of the maximal response); for EC50: COS-7 cells, GAL4–hPPARδ-LBD
T2 construct: expressed in transfected cells; host or cells: COS-7
T2 sequence (Q03181 211-439 limits assumed): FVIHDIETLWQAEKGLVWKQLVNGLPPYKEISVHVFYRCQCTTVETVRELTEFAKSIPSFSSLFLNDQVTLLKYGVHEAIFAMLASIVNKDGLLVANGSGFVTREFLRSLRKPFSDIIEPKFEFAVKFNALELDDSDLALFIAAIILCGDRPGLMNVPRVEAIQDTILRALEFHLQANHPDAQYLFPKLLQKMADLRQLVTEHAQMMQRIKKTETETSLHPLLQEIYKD
Procedure: (§4) The pSG5-GAL–hPPARα/δ/γ plasmids express fusion proteins comprising the yeast transcription factor GAL4 DNA-binding domain and each of the human PPARα/δ/γ-LBDs. The MH100(UAS)×4-tk-Luc plasmid contains four copies of the MH100 GAL4 binding site and the Firefly luciferase gene. The cells were transfected with those plasmids and were treated with various PPAR ligands, and both Firefly and Renilla luciferase activities were measured using the Dual-Glo Luciferase Assay System (Promega, Madison, WI, USA) as described previously. […] GW1929 was purchased from Sigma-Aldrich (St. Louis, MO, USA).
(§5) For the undertaking of the comparison of the potency, efficacy, and selectivity of the five PPAR ligands (Figure 1A) against the PPAR subtypes, we evaluated their PPARα/δ/γ activation using three different methods: a cell-based transactivation assay, a coactivator recruitment assay, and a thermal stability assay, as we previously performed on three fibrates (namely, bezafibrate, fenofibric acid, and pemafibrate). The cell-based transactivation assay utilizing the Gal4–PPAR-LBD system is the most widely used method for the determination of PPAR activation by certain ligands, although their responses depend on the used cell types in which several coactivators with altered functions are differentially expressed.
(§6) Figure 1 LBD-mediated human PPARα/δ/γ transactivation by PPAR ligands. (A) Chemical structures of the five PPAR ligands used in this study. […] Data are presented as the mean ± standard error (SE) of three independent experiments with duplicate samples.

[3] = biological target: T3, PPARγ-LBD (Homo sapiens, UniProt P37231); experiment: TR-FRET SRC1 coactivator recruitment assay; format: biochemical; design: PPARγ-LBD (amino acids 203–477 in isoform 1); made in house; host or cells: Rosetta (DE3) pLysS (E. coli); conditions: SRC1 peptide, read-out: EC50, SRC1 recruitment to PPARγ-LBD
T3 sequence (P37231 203-477 isoform P37231-2): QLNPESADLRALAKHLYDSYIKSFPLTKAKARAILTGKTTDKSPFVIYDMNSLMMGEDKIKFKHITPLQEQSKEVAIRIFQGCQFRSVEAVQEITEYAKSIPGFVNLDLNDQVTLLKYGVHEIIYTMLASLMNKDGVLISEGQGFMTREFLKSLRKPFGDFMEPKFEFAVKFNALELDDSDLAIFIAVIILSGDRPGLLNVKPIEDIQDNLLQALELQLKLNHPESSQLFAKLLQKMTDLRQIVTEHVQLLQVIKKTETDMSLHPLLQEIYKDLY
Procedure: as §1, §2, §3

[4] = biological target: T4, human PPARγ (Homo sapiens, UniProt P37231); experiment: Transactivation assay (GAL4–hPPARγ-LBD chimera, luciferase reporter, COS-7 cells); format: cell-based; conditions: for Emax: 100% = 1 µM GW1929, read-out: Efficacy, PPARγ transactivation (% of the maximal response); for EC50: GAL4–hPPARγ-LBD
T4 construct: expressed in transfected cells; host or cells: COS-7
T4 sequence (P37231 238-503 limits assumed): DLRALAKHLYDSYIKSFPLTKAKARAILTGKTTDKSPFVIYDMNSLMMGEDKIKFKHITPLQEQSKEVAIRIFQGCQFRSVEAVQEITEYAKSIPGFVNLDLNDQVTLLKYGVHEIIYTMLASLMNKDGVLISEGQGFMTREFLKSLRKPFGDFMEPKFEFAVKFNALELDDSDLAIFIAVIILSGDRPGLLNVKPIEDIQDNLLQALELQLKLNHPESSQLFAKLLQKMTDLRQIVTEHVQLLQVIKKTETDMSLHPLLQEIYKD
Procedure: as §4, §5, §6

[5] = biological target: T5, PPARδ-LBD (Homo sapiens, UniProt Q03181); experiment: TR-FRET SRC1 coactivator recruitment assay; format: biochemical; design: PPARδ-LBD (amino acids 170–441); made in house; host or cells: Rosetta (DE3) pLysS (E. coli); conditions: for EC50: TR-FRET, SRC1 peptide, read-out: EC50, SRC1 recruitment to PPARδ-LBD
T5 sequence (Q03181 170-441): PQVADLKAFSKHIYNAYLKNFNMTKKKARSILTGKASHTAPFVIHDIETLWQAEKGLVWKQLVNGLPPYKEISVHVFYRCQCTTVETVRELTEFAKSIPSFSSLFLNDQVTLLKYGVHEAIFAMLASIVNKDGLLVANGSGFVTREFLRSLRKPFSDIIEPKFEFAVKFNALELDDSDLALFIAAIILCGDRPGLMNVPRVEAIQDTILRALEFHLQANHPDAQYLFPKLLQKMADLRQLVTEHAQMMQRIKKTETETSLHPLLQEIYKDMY
Procedure: as §1, §2, §3

Structure (SMILES)	Efficacy, SRC1 recruitment to PPARα-LBD ([1]; 100% = 1 µM GW7647)	EC50 [1]	Emax [2]	EC50 [3]	Emax [4]	EC50 [4]	EC50 [2]	EC50 [5]	Efficacy, SRC1 recruitment to PPARδ-LBD ([5]; 100% = 1 µM GW501516)
CSc1ccc(C(=O)/C=C/c2cc(C)c(OC(C)(C)C(=O)O)c(C)c2)cc1 [elafibranor]	59.2%	4.95 µM	14.8%	11.8 µM	38.5%	2.12 µM	–	–	–
O=C(O)CCCc1cc2cc(Cl)ccc2n1S(=O)(=O)c1ccc2ncsc2c1 [lanifibranor]	–	13.8 µM	13.3%	7.57 µM	24.9%	0.572 µM	0.398 µM	4.44 µM	–
CCO[C@@H](Cc1ccc(OCCn2c(C)ccc2-c2ccc(SC)cc2)cc1)C(=O)O [saroglitazar]	–	1.04 µM	6%	3.44 µM	89.4%	0.311 µM	> 10 µM	> 100 µM	–
CCO[C@H](COc1ccc(C(F)(F)F)cc1)CSc1ccc(OCC(=O)O)c(C)c1 [seladelpar]	–	> 1 µM	99.3%	> 300 µM	58.5%	3.53 µM	0.0202 µM	0.111 µM	83.0%
